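96-well plates; 48 h exposure; 5 concentrations. Endpoints by linear interpolation between flanking doses. Not reached: highest tested concentration assigned. Definition used: TGI = concentration required for complete inhibition of growth.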
Tests used:
Test in all cases: NCI tumour cell line growth inhibition, 48 h
SK-MEL-28 melanoma = tested on: SK-MEL-28 melanoma
NCI-H226 lung = tested on: NCI-H226 lung
SN12C renal = tested on: SN12C renal
KM12 colon = tested on: KM12 colon
M14 melanoma = tested on: M14 melanoma
HOP-62 NSCLC = tested on: HOP-62 NSCLC
CAKI-1 renal = tested on: CAKI-1 renal
A549 NSCLC = tested on: A549 NSCLC
UO-31 renal = tested on: UO-31 renal
ACHN renal = tested on: ACHN renal
TK-10 renal = tested on: TK-10 renal
HL-60(TB) leukemia = tested on: HL-60(TB) leukemia
DLD-1 colon = tested on: DLD-1 colon
MALME-3M melanoma = tested on: MALME-3M melanoma
HT29 colon = tested on: HT29 colon
RXF-631 renal = tested on: RXF-631 renal
786-0 renal = tested on: 786-0 renal
HCT-116 colon = tested on: HCT-116 colon
NCI-H23 lung = tested on: NCI-H23 lung
SK-OV-3 ovarian = tested on: SK-OV-3 ovarian
NCI-H460 lung = tested on: NCI-H460 lung
HCT-15 colon = tested on: HCT-15 colon
SNB-19 CNS = tested on: SNB-19 CNS
IGROV1 ovarian = tested on: IGROV1 ovarian
SF-539 CNS = tested on: SF-539 CNS
EKVX NSCLC = tested on: EKVX NSCLC
RXF 393 renal = tested on: RXF 393 renal
COLO 205 colon = tested on: COLO 205 colon
OVCAR-8 ovarian = tested on: OVCAR-8 ovarian
UACC-62 melanoma = tested on: UACC-62 melanoma
SK-MEL-5 melanoma = tested on: SK-MEL-5 melanoma
SF-268 CNS = tested on: SF-268 CNS
SK-MEL-2 melanoma = tested on: SK-MEL-2 melanoma
SW-620 colon = tested on: SW-620 colon
XF 498 CNS = tested on: XF 498 CNS
U251 CNS = tested on: U251 CNS
MOLT-4 leukemia = tested on: MOLT-4 leukemia
RPMI-8226 leukemia = tested on: RPMI-8226 leukemia
K-562 leukemia = tested on: K-562 leukemia
SR leukemia = tested on: SR leukemia
UACC-257 melanoma = tested on: UACC-257 melanoma
CCRF-CEM leukemia = tested on: CCRF-CEM leukemia
SNB-75 CNS = tested on: SNB-75 CNS
NCI-H522 lung = tested on: NCI-H522 lung
HOP-92 NSCLC = tested on: HOP-92 NSCLC
HOP-18 NSCLC = tested on: HOP-18 NSCLC
OVCAR-3 ovarian = tested on: OVCAR-3 ovarian
M19-MEL melanoma = tested on: M19-MEL melanoma
KM20L2 colon = tested on: KM20L2 colon
OVCAR-4 ovarian = tested on: OVCAR-4 ovarian
SF-295 CNS = tested on: SF-295 CNS
DMS 114 small cell lung = tested on: DMS 114 small cell lung
LXFL 529 NSCLC = tested on: LXFL 529 NSCLC
LOX IMVI melanoma = tested on: LOX IMVI melanoma
HCC-2998 colon = tested on: HCC-2998 colon
DMS 273 small cell lung = tested on: DMS 273 small cell lung
OVCAR-5 ovarian = tested on: OVCAR-5 ovarian

Q: Which TGI (SK-MEL-28 melanoma) does the source give for Cc1cc(C)c(C(=O)/C(=C/c2ccccc2)c2ccccc2)c(C)c1 here?
A: The TGI was greater than 100 µM.

Q: And the TGI (NCI-H226 lung)?
A: The TGI was greater than 100 µM.

Q: What about the TGI (SN12C renal) of the same compound?
A: Its TGI is greater than 100 µM.

Q: And the TGI (KM12 colon)?
A: The TGI was greater than 100 µM.

Q: And the TGI (M14 melanoma)?
A: Its TGI is greater than 100 µM.

Q: What about the TGI (HOP-62 NSCLC) of the same compound?
A: Its TGI is greater than 100 µM.

Q: What about the TGI (CAKI-1 renal) of the same compound?
A: Its TGI is greater than 100 µM.

Q: What about the TGI (A549 NSCLC) of the same compound?
A: The TGI was greater than 100 µM.

Q: And the TGI (UO-31 renal)?
A: Its TGI is greater than 100 µM.

Q: What about the TGI (ACHN renal) of the same compound?
A: The TGI was greater than 100 µM.

Q: And the TGI (TK-10 renal)?
A: The TGI was greater than 100 µM.

Q: And the TGI (HL-60(TB) leukemia)?
A: Its TGI is 90.6 µM.

Q: What about the TGI (DLD-1 colon) of the same compound?
A: The TGI was greater than 100 µM.

Q: And the TGI (MALME-3M melanoma)?
A: The TGI was greater than 100 µM.

Q: What about the TGI (HT29 colon) of the same compound?
A: Its TGI is greater than 100 µM.

Q: And the TGI (RXF-631 renal)?
A: Its TGI is greater than 100 µM.

Q: What about the TGI (786-0 renal) of the same compound?
A: The TGI was greater than 100 µM.

Q: And the TGI (HCT-116 colon)?
A: The TGI was greater than 100 µM.

Q: What about the TGI (NCI-H23 lung) of the same compound?
A: Its TGI is greater than 100 µM.

Q: What about the TGI (SK-OV-3 ovarian) of the same compound?
A: Its TGI is greater than 100 µM.

Q: What about the TGI (NCI-H460 lung) of the same compound?
A: The TGI was greater than 100 µM.

Q: What about the TGI (HCT-15 colon) of the same compound?
A: The TGI was greater than 100 µM.

Q: What about the TGI (SNB-19 CNS) of the same compound?
A: Its TGI is greater than 100 µM.

Q: What about the TGI (IGROV1 ovarian) of the same compound?
A: Its TGI is greater than 100 µM.

Q: What about the TGI (SF-539 CNS) of the same compound?
A: Its TGI is greater than 100 µM.

Q: What about the TGI (EKVX NSCLC) of the same compound?
A: Its TGI is greater than 100 µM.

Q: And the TGI (RXF 393 renal)?
A: The TGI was greater than 100 µM.

Q: What about the TGI (COLO 205 colon) of the same compound?
A: The TGI was greater than 100 µM.

Q: What about the TGI (OVCAR-8 ovarian) of the same compound?
A: Its TGI is greater than 100 µM.

Q: And the TGI (UACC-62 melanoma)?
A: The TGI was greater than 100 µM.

Q: What about the TGI (SK-MEL-5 melanoma) of the same compound?
A: Its TGI is greater than 100 µM.

Q: And the TGI (SF-268 CNS)?
A: Its TGI is greater than 100 µM.

Q: And the TGI (SK-MEL-2 melanoma)?
A: The TGI was 43.4 µM.

Q: And the TGI (SW-620 colon)?
A: The TGI was greater than 100 µM.

Q: And the TGI (XF 498 CNS)?
A: Its TGI is greater than 100 µM.

Q: What about the TGI (U251 CNS) of the same compound?
A: The TGI was greater than 100 µM.

Q: And the TGI (MOLT-4 leukemia)?
A: The TGI was greater than 100 µM.

Q: And the TGI (RPMI-8226 leukemia)?
A: The TGI was greater than 100 µM.

Q: And the TGI (K-562 leukemia)?
A: The TGI was greater than 100 µM.

Q: And the TGI (SR leukemia)?
A: Its TGI is greater than 100 µM.

Q: And the TGI (UACC-257 melanoma)?
A: The TGI was greater than 100 µM.

Q: What about the TGI (CCRF-CEM leukemia) of the same compound?
A: The TGI was greater than 100 µM.

Q: What about the TGI (SNB-75 CNS) of the same compound?
A: Its TGI is greater than 100 µM.

Q: What about the TGI (NCI-H522 lung) of the same compound?
A: Its TGI is 77.2 µM.

Q: And the TGI (HOP-92 NSCLC)?
A: The TGI was greater than 100 µM.

Q: And the TGI (HOP-18 NSCLC)?
A: Its TGI is greater than 100 µM.

Q: What about the TGI (OVCAR-3 ovarian) of the same compound?
A: The TGI was greater than 100 µM.

Q: What about the TGI (M19-MEL melanoma) of the same compound?
A: The TGI was greater than 100 µM.

Q: What about the TGI (KM20L2 colon) of the same compound?
A: Its TGI is greater than 100 µM.

Q: And the TGI (OVCAR-4 ovarian)?
A: The TGI was greater than 100 µM.

Q: What about the TGI (SF-295 CNS) of the same compound?
A: The TGI was greater than 100 µM.

Q: What about the TGI (DMS 114 small cell lung) of the same compound?
A: Its TGI is greater than 100 µM.

Q: And the TGI (LXFL 529 NSCLC)?
A: Its TGI is greater than 100 µM.

Q: How did the TGI (SK-MEL-28 melanoma) turn out when Cc1cc2c(C)nn(Cc3ccccc3Cl)c2c(C#N)c1C was run?
A: Its TGI is greater than 100 µM.

Q: And the TGI (LOX IMVI melanoma)?
A: The TGI was greater than 100 µM.

Q: And the TGI (NCI-H226 lung)?
A: The TGI was greater than 100 µM.

Q: What about the TGI (SN12C renal) of the same compound?
A: The TGI was greater than 100 µM.

Q: And the TGI (HOP-62 NSCLC)?
A: Its TGI is greater than 100 µM.

Q: And the TGI (A549 NSCLC)?
A: Its TGI is greater than 100 µM.

Q: And the TGI (UO-31 renal)?
A: Its TGI is greater than 100 µM.

Q: What about the TGI (ACHN renal) of the same compound?
A: The TGI was greater than 100 µM.

Q: What about the TGI (TK-10 renal) of the same compound?
A: Its TGI is greater than 100 µM.

Q: What about the TGI (HL-60(TB) leukemia) of the same compound?
A: Its TGI is greater than 100 µM.

Q: And the TGI (DLD-1 colon)?
A: Its TGI is greater than 100 µM.

Q: And the TGI (MALME-3M melanoma)?
A: Its TGI is greater than 100 µM.

Q: What about the TGI (HT29 colon) of the same compound?
A: Its TGI is greater than 100 µM.

Q: And the TGI (RXF-631 renal)?
A: The TGI was greater than 100 µM.

Q: And the TGI (786-0 renal)?
A: The TGI was greater than 100 µM.

Q: What about the TGI (HCT-116 colon) of the same compound?
A: Its TGI is greater than 100 µM.

Q: What about the TGI (NCI-H23 lung) of the same compound?
A: The TGI was greater than 100 µM.

Q: What about the TGI (HCC-2998 colon) of the same compound?
A: The TGI was greater than 100 µM.

Q: And the TGI (SK-OV-3 ovarian)?
A: Its TGI is greater than 100 µM.

Q: What about the TGI (NCI-H460 lung) of the same compound?
A: The TGI was greater than 100 µM.

Q: And the TGI (HCT-15 colon)?
A: Its TGI is greater than 100 µM.

Q: And the TGI (SNB-19 CNS)?
A: Its TGI is greater than 100 µM.

Q: And the TGI (IGROV1 ovarian)?
A: The TGI was greater than 100 µM.

Q: And the TGI (SF-539 CNS)?
A: The TGI was greater than 100 µM.

Q: And the TGI (EKVX NSCLC)?
A: The TGI was greater than 100 µM.

Q: What about the TGI (RXF 393 renal) of the same compound?
A: The TGI was greater than 100 µM.

Q: And the TGI (COLO 205 colon)?
A: Its TGI is greater than 100 µM.

Q: What about the TGI (OVCAR-8 ovarian) of the same compound?
A: The TGI was greater than 100 µM.

Q: And the TGI (DMS 273 small cell lung)?
A: The TGI was greater than 100 µM.

Q: And the TGI (UACC-62 melanoma)?
A: Its TGI is greater than 100 µM.

Q: And the TGI (SF-268 CNS)?
A: The TGI was greater than 100 µM.

Q: And the TGI (SK-MEL-2 melanoma)?
A: Its TGI is greater than 100 µM.

Q: What about the TGI (SW-620 colon) of the same compound?
A: The TGI was greater than 100 µM.

Q: And the TGI (XF 498 CNS)?
A: Its TGI is greater than 100 µM.

Q: And the TGI (U251 CNS)?
A: Its TGI is greater than 100 µM.

Q: What about the TGI (MOLT-4 leukemia) of the same compound?
A: Its TGI is greater than 100 µM.

Q: And the TGI (RPMI-8226 leukemia)?
A: The TGI was greater than 100 µM.

Q: And the TGI (SR leukemia)?
A: Its TGI is greater than 100 µM.

Q: What about the TGI (OVCAR-5 ovarian) of the same compound?
A: Its TGI is greater than 100 µM.

Q: And the TGI (UACC-257 melanoma)?
A: The TGI was greater than 100 µM.

Q: What about the TGI (CCRF-CEM leukemia) of the same compound?
A: Its TGI is greater than 100 µM.

Q: What about the TGI (SNB-75 CNS) of the same compound?
A: Its TGI is greater than 100 µM.

Q: And the TGI (HOP-92 NSCLC)?
A: Its TGI is greater than 100 µM.

Q: And the TGI (HOP-18 NSCLC)?
A: Its TGI is greater than 100 µM.

Q: And the TGI (OVCAR-3 ovarian)?
A: The TGI was greater than 100 µM.

Q: What about the TGI (M19-MEL melanoma) of the same compound?
A: Its TGI is greater than 100 µM.

Q: And the TGI (KM20L2 colon)?
A: The TGI was greater than 100 µM.

Q: What about the TGI (SF-295 CNS) of the same compound?
A: The TGI was greater than 100 µM.

Q: What about the TGI (LXFL 529 NSCLC) of the same compound?
A: The TGI was greater than 100 µM.
